Assay results: PubChem BioAssay AID248 (DTP/NCI, 2004)
Where “and” joins values, the source holds several entries; their conditions need not be identical. Equal entries are not always repeated. Toxic doses and inconclusive results are not listed. Peptide text beside a SMILES is read from it. * marks the point of attachment. Cbz = O=C(OCc1ccccc1)*

System: L1210 leukemia ip in BDF1 mice, survival T/C
Test: NCI In Vivo Anticancer Drug Screen. Data for tumor model L1210 Leukemia (intraperitoneal) in B6D2F1 (BDF1) mice
Conditions: endpoint: mean survival time, higher = longer survival
In short: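 Mice bearing the transplanted tumor received compound or vehicle. Survival of the treated group was divided by that of the vehicle-treated control group to give the ratio.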

[1] = dose: 100.0 mg/kg/injection, schedule: Q01DX009 (ip), vehicle: saline with Tween-80
[2] = dose: 100.0 mg/kg/injection, schedule: Q04DX003 (ip), vehicle: saline with Tween-80
[3] = dose: 200.0 mg/kg/injection, schedule: Q01DX009 (ip), vehicle: saline with Tween-80
[4] = dose: 200.0 mg/kg/injection, schedule: Q04DX003 (ip), vehicle: saline with Tween-80
[5] = dose: 400.0 mg/kg/injection, schedule: Q01DX009 (ip), vehicle: saline with Tween-80
[6] = dose: 400.0 mg/kg/injection, schedule: Q04DX003 (ip), vehicle: saline with Tween-80
[7] = dose: 100.0 mg/kg/injection, schedule: Q01DX001 (ip), vehicle: saline
[8] = dose: 200.0 mg/kg/injection, schedule: Q01DX001 (ip), vehicle: saline
[9] = dose: 400.0 mg/kg/injection, schedule: Q01DX001 (ip), vehicle: saline
[10] = dose: 25.0 mg/kg/injection, schedule: Q01DX009 (ip), vehicle: saline
[11] = dose: 50.0 mg/kg/injection, schedule: Q01DX009 (ip), vehicle: saline
[12] = dose: 100.0 mg/kg/injection, schedule: Q01DX009 (ip), vehicle: saline
[13] = dose: 100.0 mg/kg/injection, schedule: Q04DX003 (ip), vehicle: saline
[14] = dose: 200.0 mg/kg/injection, schedule: Q04DX003 (ip), vehicle: saline
[15] = dose: 400.0 mg/kg/injection, schedule: Q04DX003 (ip), vehicle: saline
[16] = dose: 50.0 mg/kg/injection, schedule: Q04DX003 (ip), vehicle: saline
[17] = dose: 50.0 mg/kg/injection, schedule: Q04DX003 (ip), vehicle: Klucel (hydroxypropylcellulose) (HPC)
[18] = dose: 100.0 mg/kg/injection, schedule: Q01DX001 (ip), vehicle: carboxymethylcellulose (CMC)
[19] = dose: 200.0 mg/kg/injection, schedule: Q01DX001 (ip), vehicle: carboxymethylcellulose (CMC)
[20] = dose: 400.0 mg/kg/injection, schedule: Q01DX001 (ip), vehicle: carboxymethylcellulose (CMC)
[21] = dose: 75.0 mg/kg/injection, schedule: Q01DX001 (ip), vehicle: saline
[22] = dose: 150.0 mg/kg/injection, schedule: Q01DX001 (ip), vehicle: saline

With CCN(CC)c1ccc(/C=C\C(=O)c2ccccc2)cc1 the T/C (dose: 100.0 mg/kg/injection, schedule: Q01DX009 (ip), vehicle: Klucel (hydroxypropylcellulose) (HPC)) was 97 % of control, the T/C (dose: 200.0 mg/kg/injection, schedule: Q01DX009 (ip), vehicle: Klucel (hydroxypropylcellulose) (HPC)) was 100 % of control and the T/C (dose: 400.0 mg/kg/injection, schedule: Q01DX009 (ip), vehicle: Klucel (hydroxypropylcellulose) (HPC)) was 100 % of control.

With N#Cc1cccn1O the T/C (dose: 37.5 mg/kg/injection, schedule: Q01DX009 (ip), vehicle: Klucel (hydroxypropylcellulose) (HPC)) was 104 % of control, the T/C (dose: 75.0 mg/kg/injection, schedule: Q01DX009 (ip), vehicle: Klucel (hydroxypropylcellulose) (HPC)) was 100 % of control and the T/C (dose: 150.0 mg/kg/injection, schedule: Q01DX009 (ip), vehicle: Klucel (hydroxypropylcellulose) (HPC)) was 108 % of control.

With CSCSCC(NS(=O)(=O)c1ccc(C)cc1)C(=O)O (centres undefined) the T/C [1] was 109 % of control, the T/C [2] was 107 % of control and the T/C [3] was 109 % of control. For the same compound, the T/C [4] was 96 % of control, the T/C [5] was 104 % of control and the T/C [6] was 105 % of control.

For O=C1c2ccccc2Cc2ccccc21, the T/C [7] was 97 % of control, the T/C (dose: 100.0 mg/kg/injection, schedule: Q04DX002 (ip), vehicle: gum acacia) was 103 % of control and the T/C [8] was 95 % of control. For the same compound, the T/C (dose: 200.0 mg/kg/injection, schedule: Q04DX002 (ip), vehicle: gum acacia) was 100 % of control, the T/C [9] was 106 % of control and the T/C (dose: 400.0 mg/kg/injection, schedule: Q04DX002 (ip), vehicle: gum acacia) was 106 % of control.

CC(=O)C(C)=P(c1ccccc1)(c1ccccc1)c1ccccc1 was tested, and the T/C [10] was 101 % of control, the T/C [11] was 102 % of control and the T/C [12] was 96 % of control. For the same compound, the T/C [13] was 98 % of control, the T/C [14] was 88 % of control and the T/C [15] was 88 % of control.

With O=C(Cc1ccccc1)c1ccccc1 the T/C [1] was 93 % of control, the T/C [3] was 93 % of control and the T/C [5] was 100 % of control.

With OCCOc1cccc(OCCO)c1 the T/C [2] was 103 % of control, the T/C [4] was 104 % of control and the T/C [6] was 92 % of control.

In the case of Oc1cccnc1CN1CCCCC1, the T/C [10] is reported as 100 % of control, the T/C [11] is reported as 91 % of control and the T/C [16] is reported as 97 % of control. For the same compound, the T/C [12] was 96 % of control and the T/C [13] was 97 % of control.

With OCCOC(c1ccccc1)(c1ccccc1)c1ccccc1 the T/C (dose: 50.0 mg/kg/injection, schedule: Q01DX009 (ip), vehicle: saline with Tween-80) was 98 % of control, the T/C [1] was 100 % of control and the T/C [3] was 91 % of control.

C/C=C(\C)C(=O)O was tested, and the T/C (dose: 222.0 mg/kg/injection, schedule: Q01DX Z (ip), vehicle: saline) was 90 % of control.

With CC(C)OC(=O)Nc1ccc(Br)cc1 the T/C (dose: 100.0 mg/kg/injection, schedule: Q04DX002 (ip), vehicle: Klucel (hydroxypropylcellulose) (HPC)) was 88 % of control and the T/C (dose: 200.0 mg/kg/injection, schedule: Q04DX002 (ip), vehicle: Klucel (hydroxypropylcellulose) (HPC)) was 95 % of control.

CC(C)CC(C)N (centres undefined) was tested, and the T/C [17] was 93 % of control, the T/C (dose: 100.0 mg/kg/injection, schedule: Q04DX003 (ip), vehicle: Klucel (hydroxypropylcellulose) (HPC)) was 100 % of control and the T/C (dose: 200.0 mg/kg/injection, schedule: Q04DX003 (ip), vehicle: Klucel (hydroxypropylcellulose) (HPC)) was 96 % of control.

For N#CC(C(N)=O)n1cnc(C(N)=O)c1N (centres undefined), the T/C [18] was 97 % of control, the T/C [19] was 94 % of control and the T/C [20] was 96 % of control.

In the case of Oc1cccc2ccc(N/N=C/c3ccnc4c(O)cccc34)nc12, the T/C [18] is reported as 93 % of control, the T/C [19] is reported as 96 % of control and the T/C [20] is reported as 91 % of control.

Nc1ccc(OCCCc2c(-c3ccccc3)nc(N)[nH]c2=O)cc1 was tested, and the T/C (dose: 50.0 mg/kg/injection, schedule: Q01DX001 (ip), vehicle: saline) was 93 % of control, the T/C [7] was 96 % of control and the T/C [13] was 100 % of control. For the same compound, the T/C [8] was 102 % of control, the T/C [14] was 96 % of control and the T/C [9] was 102 % of control. For the same compound, the T/C [15] was 90 % of control.

With CCN(CC)CCOC(=O)C1c2ccccc2Oc2ccccc21 the T/C [18] was 102 % of control and the T/C [19] was 94 % of control.

With CC(C)(C)OC(=O)NOc1ccc([N+](=O)[O-])cc1[N+](=O)[O-] the T/C (dose: 2.0 mg/kg/injection, schedule: Q01DX009 (ip), vehicle: saline with Tween-80) was 95 % of control, the T/C (dose: 4.0 mg/kg/injection, schedule: Q01DX009 (ip), vehicle: saline with Tween-80) was 106 % of control and the T/C (dose: 8.0 mg/kg/injection, schedule: Q01DX009 (ip), vehicle: saline with Tween-80) was 107 % of control. The T/C (dose: 16.0 mg/kg/injection, schedule: Q01DX009 (ip), vehicle: saline with Tween-80) was 101 % of control, the T/C (dose: 25.0 mg/kg/injection, schedule: Q04DX003 (ip), vehicle: saline with Tween-80) was 105 % of control and the T/C (dose: 50.0 mg/kg/injection, schedule: Q04DX003 (ip), vehicle: saline with Tween-80) was 92 % of control. The T/C (dose: 75.0 mg/kg/injection, schedule: Q01DX001 (ip), vehicle: carboxymethylcellulose (CMC)) was 96 % of control and the T/C [2] was 88 % of control.

With COC(=O)C(CC(C)C)NC(=O)C(CC(N)=O)NC(=O)OCc1ccccc1 (stereo not drawn) (Cbz-Asn-Leu-OMe; configuration not given here) the T/C [7] was 96 % of control, the T/C [8] was 93 % of control and the T/C [9] was 98 % of control.

With O=C(Cn1ccc(O)cc1=O)c1ccco1 the T/C [1] was 108 % of control, the T/C [2] was 96 % of control and the T/C [3] was 104 % of control. For the same compound, the T/C [4] was 94 % of control, the T/C [5] was 101 % of control and the T/C [6] was 97 % of control.

In the case of CN(C)C=NC1CCC(C(C)(C)C)CC1 (centres undefined), the T/C (dose: 12.5 mg/kg/injection, schedule: Q01DX009 (ip), vehicle: Klucel (hydroxypropylcellulose) (HPC)) is reported as 96 % of control, the T/C (dose: 12.5 mg/kg/injection, schedule: Q04DX003 (ip), vehicle: Klucel (hydroxypropylcellulose) (HPC)) is reported as 103 % of control and the T/C (dose: 25.0 mg/kg/injection, schedule: Q01DX009 (ip), vehicle: Klucel (hydroxypropylcellulose) (HPC)) is reported as 102 % of control. For the same compound, the T/C (dose: 25.0 mg/kg/injection, schedule: Q04DX003 (ip), vehicle: Klucel (hydroxypropylcellulose) (HPC)) was 95 % of control and the T/C [17] was 93 % of control.

In the case of CNc1nc(N(C)C)nc(N(C)C)n1, the T/C [21] is reported as 92 % of control and the T/C [22] is reported as 94 % of control.

With Cn1nc(N)c2ncc(-c3ccc(Cl)cc3)nc21 the T/C [1] was 93 % of control, the T/C [3] was 96 % of control and the T/C [5] was 87 % of control.

In the case of CS(=O)(=O)OC[C@H](OS(=O)(=O)O)[C@H](COS(C)(=O)=O)OS(=O)(=O)O, the T/C [11] is reported as 106 % of control, the T/C [16] is reported as 89 % of control and the T/C [7] is reported as 89 % of control. For the same compound, the T/C [12] was 95 % of control, the T/C [13] was 96 % of control and the T/C [8] was 95 % of control. For the same compound, the T/C (dose: 200.0 mg/kg/injection, schedule: Q01DX009 (ip), vehicle: saline) was 98 % of control and the T/C [14] was 91 % of control.

For CN(C)CCOc1ncnc2nc[nH]c12, the T/C [13] was 101 % of control, the T/C [14] was 102 % of control and the T/C [15] was 96 % of control.

In the case of Cc1ccc(S(=O)(=O)NN=C2CCCCC2)cc1, the T/C [21] is reported as 90 % of control, the T/C [22] is reported as 90 % of control and the T/C (dose: 300.0 mg/kg/injection, schedule: Q01DX001 (ip), vehicle: saline) is reported as 90 % of control.

CCC(Cl)COP(=O)(CC(Cl)CC)OC(C(C)C)P(=O)(OCC(Cl)CC)OCC(Cl)CC (centres undefined) was tested, and the T/C (dose: 100.0 mg/kg/injection, schedule: Q01DX001 (ip), vehicle: Klucel (hydroxypropylcellulose) (HPC)) was 108 % of control, the T/C (dose: 200.0 mg/kg/injection, schedule: Q01DX001 (ip), vehicle: Klucel (hydroxypropylcellulose) (HPC)) was 101 % of control and the T/C (dose: 400.0 mg/kg/injection, schedule: Q01DX001 (ip), vehicle: Klucel (hydroxypropylcellulose) (HPC)) was 101 % of control.

In the case of CCC1CN1CC1CO1 (centres undefined), the T/C (dose: 4.0 mg/kg/injection, schedule: Q01DX Z (ip), vehicle: saline) is reported as 101 % of control, the T/C (dose: 7.0 mg/kg/injection, schedule: Q01DX Z (ip), vehicle: saline) is reported as 106 % of control and the T/C (dose: 10.0 mg/kg/injection, schedule: Q01DX Z (ip), vehicle: saline) is reported as 95 % of control. The T/C (dose: 33.0 mg/kg/injection, schedule: Q01DX Z (ip), vehicle: saline) was 158 % of control and 196 % of control, the T/C (dose: 50.0 mg/kg/injection, schedule: Q01DX Z (ip), vehicle: saline) was 123 % of control and 183 % of control and 218 % of control and the T/C (dose: 75.0 mg/kg/injection, schedule: Q01DX Z (ip), vehicle: saline) was 120 % of control.
